Laboratory results from paper PMC6421522, “Designing Dual Inhibitors of Anaplastic Lymphoma Kinase (ALK) and Bromodomain-4 (BRD4) by Tuning Kinase Selectivity” (Journal of Medicinal Chemistry, 2019).

Experiments:
[1] = tested on: HeLa cells; assay: Mitotic arrest and mitotic markers in HeLa cells (Western blot); format: cell-based
Procedure: Protein extracts of cells were prepared by lysis in radioimmunoprecipitation assay buffer (Sigma) supplemented with protease inhibitors (complete protease inhibitor cocktail, Roche). Protein extracts (25 μg) were separated by sodium dodecyl sulfate-polyacrylamide gel electrophoresis and transferred onto poly(vinylidene difluoride) membranes using the Trans-Blot Turbo transfer system (BioRad). After blocking with 5% bovine serum albumin in PBS with 0.1% Tween-20 for 30 min, the membrane was incubated with primary antibodies for 1 h at room temperature. Horseradish peroxidase-linked secondary antibodies were incubated 30 min at room temperature followed by enhanced chemiluminescence (ECL) detection (ECL Western blot substrate, Pierce).
Primary antibodies were obtained from the following sources: PLK-1 (05-844) and phosphohistone H3 (Ser10) (05806) from Millipore; pPlk1-T210 (5472) from Cell Signaling; pPlk1-S137 (21738) from Abcam; and cyclin B1 (GNS1) and β-actin (A2228) from Sigma-Aldrich served as loading control.

[2] = target: ALK WT (Homo sapiens, UniProt Q9UM73); assay: Biochemical ALK WT IC50; format: binding; settings: geometric mean
[3] = PAMPA permeability assay; format: in vitro ADME; settings: pH 7.4
Description: Table 3 Physicochemical Properties of 16k | column: result

ALK WT, sequence (Q9UM73 19-1620): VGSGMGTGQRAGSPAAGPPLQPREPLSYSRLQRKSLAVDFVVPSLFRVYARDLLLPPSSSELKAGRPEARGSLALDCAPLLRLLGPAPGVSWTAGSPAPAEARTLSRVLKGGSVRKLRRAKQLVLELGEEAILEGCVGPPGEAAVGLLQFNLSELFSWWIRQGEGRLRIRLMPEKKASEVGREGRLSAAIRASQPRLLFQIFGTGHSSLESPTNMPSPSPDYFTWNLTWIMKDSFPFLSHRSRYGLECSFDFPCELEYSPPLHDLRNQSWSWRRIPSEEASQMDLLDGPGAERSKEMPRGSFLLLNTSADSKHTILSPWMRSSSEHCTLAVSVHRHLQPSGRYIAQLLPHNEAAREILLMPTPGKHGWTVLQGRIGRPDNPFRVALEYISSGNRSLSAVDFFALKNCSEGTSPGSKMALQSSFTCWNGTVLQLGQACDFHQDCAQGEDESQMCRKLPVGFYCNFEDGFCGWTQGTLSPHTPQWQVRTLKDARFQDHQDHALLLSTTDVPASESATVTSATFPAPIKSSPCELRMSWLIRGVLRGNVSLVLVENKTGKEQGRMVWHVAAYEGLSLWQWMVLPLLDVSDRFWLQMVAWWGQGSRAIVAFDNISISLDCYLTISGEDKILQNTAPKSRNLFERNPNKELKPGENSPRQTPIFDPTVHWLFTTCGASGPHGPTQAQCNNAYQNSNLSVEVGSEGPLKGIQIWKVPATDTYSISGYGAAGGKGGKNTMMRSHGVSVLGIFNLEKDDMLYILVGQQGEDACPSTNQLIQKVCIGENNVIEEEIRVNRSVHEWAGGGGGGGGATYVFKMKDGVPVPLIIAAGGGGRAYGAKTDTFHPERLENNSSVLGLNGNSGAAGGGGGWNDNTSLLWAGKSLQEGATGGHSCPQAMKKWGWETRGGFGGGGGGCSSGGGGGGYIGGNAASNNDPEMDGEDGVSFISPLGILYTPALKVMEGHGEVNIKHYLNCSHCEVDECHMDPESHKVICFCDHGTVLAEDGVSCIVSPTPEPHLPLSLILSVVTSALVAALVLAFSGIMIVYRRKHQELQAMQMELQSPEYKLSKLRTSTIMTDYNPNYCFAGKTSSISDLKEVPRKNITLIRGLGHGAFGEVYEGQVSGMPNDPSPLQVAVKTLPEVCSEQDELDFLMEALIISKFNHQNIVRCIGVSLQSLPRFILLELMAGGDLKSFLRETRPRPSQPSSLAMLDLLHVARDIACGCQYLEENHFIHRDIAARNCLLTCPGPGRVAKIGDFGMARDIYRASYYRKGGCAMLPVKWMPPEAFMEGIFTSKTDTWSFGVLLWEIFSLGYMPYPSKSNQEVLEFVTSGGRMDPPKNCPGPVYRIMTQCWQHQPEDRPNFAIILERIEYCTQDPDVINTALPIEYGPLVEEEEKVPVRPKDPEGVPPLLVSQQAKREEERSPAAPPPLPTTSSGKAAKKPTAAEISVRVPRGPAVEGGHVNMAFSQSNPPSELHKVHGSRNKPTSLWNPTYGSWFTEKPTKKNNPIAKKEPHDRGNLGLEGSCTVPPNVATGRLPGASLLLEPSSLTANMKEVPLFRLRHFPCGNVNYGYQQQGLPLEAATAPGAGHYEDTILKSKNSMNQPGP

IC50 [2]: 60 ± 12 nM
PAMPA pH7.4 [3]: 49 × 10^–6 cm/s
SMILES: CCOc1cc(C2CCN(C)CC2)ccc1Nc1ncc2c(n1)N(Cc1cc(C)cs1)[C@H](CC)C(=O)N2C [16k, (R)-2-((2-Ethoxy-4-(1-methylpiperidin-4-yl)phenyl)amino)-7-ethyl-5-methyl-8-((4-methylthiophen-2-yl)methyl)-7,8-dihydropteridin-6(5H)-one]
concentration up to which no increase in mitotic markers and PLK-1 phosphorylation sites ([1]; HeLa cells, Western blot): > 10 µM
selectivity window for ALK^F1174L over PLK-1 in cells ([1]; based on the cellular data): 10–20 fold
expected cellular PLK-1 potency after similar drop-off ([1]; extrapolated from BI-2536 drop-off): > 2.5 µM
